Results published in patent US20120177797A1, “TASTE ENHANCING AGENT” (J-OIL MILLS, INC., priority 2009, published 2012).

Key:
Type in all cases: in vivo
[1] = Sensory evaluation, intensity of umami in aqueous MSG solution; settings: additive-free = 3.0
Description: (§1) All sensory evaluation of taste was performed by individuals wearing a nose clip. The evaluation was performed by groups of three individuals, and the scores were averaged.
(§2) To a 0.2% aqueous sodium glutamate (MSG) solution (=umami), a 0.8% aqueous salt (NaCl) solution (=saltiness) and a 2% aqueous sucrose solution (=sweetness) were added 10 ppm linear aliphatic aldehydes having 3-12 carbon atoms shown in Table 1, respectively. Sensory evaluation was performed in which intensity of taste sensed when each of the aqueous solutions is introduced into the mouth is defined as “Intensity of umami” for the aqueous MSG solution, “Intensity of saltiness” for the aqueous NaCl solution and “Intensity of sweetness” for the aqueous sucrose solution. The score of aldehyde-free taste intensity was set to 3.0, and taste intensity upon addition of aldehyde was evaluated as follows. The results are shown in Table 1. • 1.0: Much weaker • 2.0: Weaker • 3.0: Similar • 4.0: Stronger • 5.0: Much Stronger
(§3) To a 0.2% aqueous sodium glutamate (MSG) solution (=umami), a 0.8% aqueous salt (NaCl) solution (=saltiness), a 2% aqueous sucrose solution (=sweetness) were added 10 ppm linear aliphatic alcohols having 2-11 carbon atoms, respectively. Sensory evaluation was performed in which intensity of taste sensed when each of the aqueous solutions is introduced into the mouth is defined as “Intensity of umami” for the aqueous MSG solution, “Intensity of saltiness” for the aqueous NaCl solution and “Intensity of sweetness” for the aqueous sucrose solution. The score of alcohol-free taste intensity was set to 3.0, and taste intensity upon addition was evaluated as follows. The results are shown in Table 3. • 1.0: Much weaker • 2.0: Weaker • 3.0: Similar • 4.0: Stronger • 5.0: Much stronger
(§4) To a 0.2% aqueous sodium glutamate (MSG) solution (=umami), a 0.8% aqueous salt (NaCl) solution (=saltiness), a 2% aqueous sucrose solution (=sweetness) were added 1 ppm n-hexanal and 1ppm 1-octene-3-ol each, respectively. Sensory evaluation was performed in which the intensity of taste sensed when each of the aqueous solutions is introduced into the mouth is defined as “Intensity of umami” for the aqueous MSG solution, “Intensity of saltiness” for the aqueous NaCl solution and “Intensity of sweetness” for the aqueous sucrose solution. The score of additive-free taste intensity was set to 3.0, and taste intensity upon addition was evaluated as follows. The results are shown in Table 9. • 1.0: Much weaker • 2.0: Weaker • 3.0: Similar • 4.0: Stronger • 5.0: Much stronger

[2] = Sensory evaluation, intensity of saltiness in aqueous NaCl solution; settings: additive-free = 3.0, scale 1.0-5.0
[3] = as above; settings: additive-free = 3.0
Description: as §1, §2, §3, §4

[4] = Sensory evaluation, intensity of sweetness in aqueous sucrose solution; settings: additive-free = 3.0
Description: as §1, §2, §3, §4

[5] = Sensory evaluation whether salt usage can be reduced; settings: 10 ppm added to 0.5% aqueous NaCl solution; for Scores in sensory evaluation (taste intensity, saltiness): 0.5% NaCl solution = 3.0, scale 1.0-5.0
Description: as §1
Evaluation was conducted to find whether salt usage can be reduced by the taste enhancing effects. To a 0.5% aqueous NaCl solution was added 10 ppm n-hexanal or 10 ppm 1-octen-3-ol. Taste intensity was determined in the sensory evaluation where the taste intensity of the 0.5% NaCl solution was set to 3.0. For comparison, sensory evaluation was also performed for a 0.8% and 0.6% concentration of aqueous NaCl solution. The sensory evaluation was evaluated as follows. The results are shown in Table 5. • 1.0: Much weaker • 2.0: Weaker • 3.0: Similar • 4.0: Stronger • 5.0: Much stronger

[6] = Sensory evaluation, intensity of sweetness in aqueous sucrose solution; settings: additive-free = 3.0, scale 1.0-5.0
[7] = Sensory evaluation, intensity of umami in aqueous MSG solution; settings: additive-free = 3.0, scale 1.0-5.0
[8] = Sensory evaluation whether sucrose usage can be reduced; settings: 10 ppm added to 1.5% aqueous sucrose solution; for Scores in sensory evaluation (taste intensity, sweetness): 1.5% sucrose solution = 3.0, scale 1.0-5.0
Description: as §1
Evaluation was conducted to find whether sucrose usage can be reduced by the taste enhancing effects. To a 1.5% aqueous sucrose solution was added 10 ppm n-hexanal or 10 ppm 1-octen-3-ol. Taste intensity was determined in the sensory evaluation where the taste intensity of the 1.5% sucrose solution was set to 3.0. For comparison, sensory evaluation was also performed for a 2.0% and 1.8% concentration of aqueous sucrose solution. The sensory evaluation was evaluated as follows. The results are shown in Table 6. • 1.0: Much weaker • 2.0: Weaker • 3.0: Similar • 4.0: Stronger • 5.0: Much stronger

[9] = Sensory evaluation, intensity of sweetness in whipped cream; settings: 100 ppm in whipped cream; aldehyde-free = 3.0; scale 1.0-5.0
Description: as §1
Sensory evaluation was performed for “Intensity of sweetness”. The score of aldehyde-free taste intensity was set to 3.0, and taste intensity upon addition was evaluated as follows. The results are shown in Table 8. • 1.0: Much weaker • 2.0: Weaker • 3.0: Similar • 4.0: Stronger • 5.0: Much stronger

[10] = Sensory evaluation, intensity of umami in diluted soy sauce; settings: 10 ppm in soy sauce diluted to 2% in water; aldehyde-free = 3.0; scale 1.0-5.0
Description: as §1
(§5) Sensory evaluation was performed for “Intensity of Umani ” and “ Intensity of Saltiness “. The score of aldehyde-free taste intensity was set to 3.0, and taste intensity upon addition was evaluated as follows. The results are shown in Table 7. • 1.0: Much weaker • 2.0: Weaker • 3.0: Similar • 4.0: Stronger • 5.0: Much stronger

[11] = Sensory evaluation, intensity of saltiness in diluted soy sauce; settings: 10 ppm in soy sauce diluted to 2% in water; aldehyde-free = 3.0; scale 1.0-5.0
Description: as §1, §5

[12] = 1 ppm added to 0.2% MSG, scale 1.0-5.0
[13] = 10 ppm added to 0.2% MSG, 1.0 much weaker to 5.0 much stronger, mean of three individuals, nose clip
[14] = 1 ppm added to 0.8% NaCl, scale 1.0-5.0
[15] = 10 ppm added to 0.8% NaCl, 1.0 much weaker to 5.0 much stronger
[16] = 1 ppm added to 2% sucrose, scale 1.0-5.0
[17] = 10 ppm added to 2% sucrose, 1.0 much weaker to 5.0 much stronger

Row | SMILES | Intensity of umami, Aqueous MSG solution [1, 12] | Intensity of umami, Aqueous MSG solution [1, 13] | Intensity of saltiness, Aqueous NaCl solution ([2]; 0.01 ppm added to 0.8% NaCl) | Intensity of saltiness, Aqueous NaCl solution ([2]; 0.1 ppm added to 0.8% NaCl) | Intensity of saltiness, Aqueous NaCl solution ([2]; 100 ppm added to 0.8% NaCl) | Intensity of saltiness, Aqueous NaCl solution ([2]; 1000 ppm added to 0.8% NaCl) | Intensity of saltiness, Aqueous NaCl solution [3, 14] | Intensity of saltiness, Aqueous NaCl solution [3, 15] | Intensity of sweetness, Aqueous sucrose solution [4, 16] | Intensity of sweetness, Aqueous sucrose solution [4, 17] | Concentration of aqueous NaCl solution of similar saltiness intensity [5] | Scores in sensory evaluation (taste intensity, saltiness) [5] | Intensity of sweetness, Aqueous sucrose solution ([6]; 0.01 ppm added to 2% sucrose) | Intensity of sweetness, Aqueous sucrose solution ([6]; 0.1 ppm added to 2% sucrose) | Intensity of sweetness, Aqueous sucrose solution ([6]; 100 ppm added to 2% sucrose) | Intensity of sweetness, Aqueous sucrose solution ([6]; 1000 ppm added to 2% sucrose) | Intensity of umami, Aqueous MSG solution ([7]; 0.01 ppm added to 0.2% MSG) | Intensity of umami, Aqueous MSG solution ([7]; 0.1 ppm added to 0.2% MSG) | Intensity of umami, Aqueous MSG solution ([7]; 100 ppm added to 0.2% MSG) | Intensity of umami, Aqueous MSG solution ([7]; 1000 ppm added to 0.2% MSG) | further results
1 | C=CC(O)CCCCC (centres unmarked) [Example 1-octen-3-ol, 1-octen-3-ol] | 3.5 | 3.5 | 3.2 | 3.5 | 3.8 | 3.8 | 3.5 | 3.5 | 3.2 | 3.5 | ~0.6% | 3.5 | 3.2 | 3.2 | 3.5 | 3.5 | 3.2 | 3.2 | 3.8 | 3.8 | Concentration of aqueous sucrose solution of comparable/similar sweetness intensity [8]: ~1.8%; Scores in sensory evaluation (taste intensity, sweetness) [8]: 3.5
2 | CCCCCC=O [n-hexanal] | 4.3 | 5.0 | 4.0 | 4.2 | 5.0 | 5.0 | 4.3 | 5.0 | 3.8 | 4.5 | ~0.8% | 4.0 | 3.8 | 3.8 | 4.5 | 5.0 | 4.0 | 4.2 | 5.0 | 5.0 | Intensity of saltiness, Aqueous NaCl solution ([2]; 0.001 ppm added to 0.8% NaCl): 3.5; Intensity of sweetness [9]: 4.5; Intensity of umami [10]: 4.5; Intensity of saltiness [11]: 4.5; Intensity of sweetness, Aqueous sucrose solution ([6]; 0.001 ppm added to 2% sucrose): 3.5; Intensity of umami, Aqueous MSG solution ([7]; 0.001 ppm added to 0.2% MSG): 3.5; Concentration of aqueous sucrose solution of comparable/similar sweetness intensity [8]: ~2.0%; Scores in sensory evaluation (taste intensity, sweetness) [8]: 4.0
